Data: patent US20190177279A1, “CARBOXYLIC ACID AROMATIC 1,2-CYCLOPROPYLAMIDES” (Bayer Pharma Aktiengesellschaft, priority 2017, published 2019)
Where two headings read alike, the source gives them in different places.

Biological target: T1, human B1 receptor (Homo sapiens, UniProt P46663)
T1 construct: host or cells: CHO-K1
T1 sequence (P46663 1-353): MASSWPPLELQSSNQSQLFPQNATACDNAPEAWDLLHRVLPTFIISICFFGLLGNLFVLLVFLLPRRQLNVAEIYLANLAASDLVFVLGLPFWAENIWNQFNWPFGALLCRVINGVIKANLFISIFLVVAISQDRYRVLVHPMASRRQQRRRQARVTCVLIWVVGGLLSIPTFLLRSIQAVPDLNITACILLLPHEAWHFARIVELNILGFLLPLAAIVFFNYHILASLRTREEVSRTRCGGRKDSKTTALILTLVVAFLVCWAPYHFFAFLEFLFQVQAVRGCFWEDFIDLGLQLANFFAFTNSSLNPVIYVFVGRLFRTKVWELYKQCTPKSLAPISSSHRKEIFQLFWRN
Assay: Calcium flux assay (FLIPR) with recombinant CHO-K1 cells expressing human B1 receptor
Assay type: cell-based
Conditions: agonist Lys-(Des-Arg)-Bradykinin
Experimental: The potency to inhibit the Bradykinin B1 receptors was determined for the example compounds of this invention in a cell-based fluorescent calcium-mobilisation assay. The assay measures the ability of example compounds to inhibit Bradykinin B1 receptor agonist-induced increase of intracellular free Ca^2+ in the cell line expressing B1 receptor. Specifically, calcium indicator—loaded cells are pre-incubated in the absence or presence of different concentrations of example compounds followed by the stimulation with a selective B1 receptor agonist peptide. The change of the intracellular Ca^2+ concentration is monitored with a fluorescent plate reader FLIPR (Molecular Devices).
Calcium flux Assay (FLIPR) with recombinant cells for Bradykinin B1 receptor antagonist, either in the presence (hB1 IC50) or absence (hB1 free IC50) of 0.1% BSA in assay buffer
CHO-K1 cell line expressing human B1 receptor was purchased from Euroscreen (Gosselies, Belgium, with reference name hB1-D1). The cells were grown in Nutrient Mixture Ham's F12 (Sigma) containing 10% Foetal bovine serum (Sigma) and 400 μg/mL G418 (Sigma), 5 μg/mL puromycin (Sigma).
For the calcium flux assay, 80% confluent cells were detached from the culture vessels with Versene (Gibco), and seeded into 384-well plates (Cell binding Surface; Corning, N.Y.; #3683) at a density of 15,000 cells per well. Cells were seeded in a volume of 50 μL in medium without antibiotics and incubated overnight in a humidified atmosphere with 5% CO2 at 37° C. […] The calcium indicator loaded cells were incubated at 37° C. for 2 hrs. Extracellular dye was then removed and each well was filled with 45 μL of assay buffer. Cell plates were kept in dark until used. Example compounds were assayed at 8 concentrations in triplicate. Serial 10-fold dilutions in 100% DMSO were made at a 100-times higher concentration than the final concentration, and then diluted 1:10 in assay buffer. 5 μL of each diluted compound was added to the well of cell plates (yielding final concentration with 1% DMSO), and incubated for 30 min at 28° C. before the addition of B1 receptor agonist on the FLIPR instrument.
Agonist plates contained the agonist Lys-(Des-Arg)-Bradykinin (Bachem, Brackley) at 3.5×EC90 in assay buffer with 1% DMSO. The addition of agonist 20 μl per well to the assay plate was carried out on the FLIPR instrument while continuously monitoring Ca^2+-dependent fluorescence at 538 nm. A peptide antagonist Lys-(Des-Arg-Leu)-Bradykinin (Bachem, Brackley) at 20 µM was used to determine the full inhibition as control.
Peak fluorescence was used to determine the response to agonist obtained at each concentration of example compound by the following equation:
% Response=100*(RFU(example compound)−RFU(control)/(RFU(DMSO)−RFU(control)) • Control=full inhibition by the peptide antagonist Lys-(Des-Arg-Leu)-Bradykinin at 20 μM
The response values were plotted against the logarithm of the compound concentrations. The compounds were tested in triplicates per plate and mean values were plotted in Excel XLfit to determine IC50 values, percentage of maximal inhibition and the Hill slopes.

IC50 (absence of 0.1% BSA in assay buffer, read-out: hB1 free IC50): 22 nM | IC50 (presence of 0.1% BSA in assay buffer, read-out: hB1 IC50): 78 nM
Compound: O=C(O)c1cc(NC(=O)C2CC2c2ccc(Cl)cc2)cc(F)c1-c1cnn(C2CCC2)c1 (racemic) [Example 2, 5-({[2-(4-chlorophenyl)cyclopropyl]carbonyl}amino)-2-(1-cyclobutyl-1H-pyrazol-4-yl)-3-fluorobenzoic acid]
